Tested on: skin of the mice
Assay: Skin irritation test in mice (Draize scoring, Primary Irritation Index)
Type: in vivo, Balb/c mice
Conditions: for primary irritation index: 24 hr exposure, scored at 24 and 72 hours; for primary irritation index / evaluation of primary irritation index: mice; for mice with very slight erythema: n=6
Protocol: Lauryl methyl pyrifrin and TMP, two synthesized meso-substituted cationic porphyrins, were tested in vivo to determine the dermal irritation potential to the skin of the mice. The two test agents were prepared with three different concentrations individually, 3 μM, 30 μM, and 300 μM. 10% formic acid and PBS were used as positive and negative control respectively (n=6). […] The back of the animals were clipped free of fur with an electric clipper at least 4 hours before application of the sample. Prior to the application of test agents, each mouse received four parallel epidermal abrasions with a sterile needle at one side of the test area while the skin at the opposite side remained intact. Under anesthesia condition, a 0.5 ml sample of the test article was then applied to each mouse by introduction under a double gauze layer to an area of skin approximately 1″×1″ (2.54×2.54 cm) square. The patches were backed with plastic, covered with a non reactive tape and the entire test site wrapped with a binder. Animals will be returned to their cages. […] The Primary Irritation Index (P.I.I.) (sum of the scored reactions divided by 24 (two scoring intervals multiplied by two test parameters multiplied by six mice)) of the test article was calculated following test completion. A material producing a P.I.I. score of greater than or equal to 5.00 would be considered positive; the material would be considered a primary irritant to the skin (Table 2).

**Q.** What does the source list for CCCCCCCCCCCC[n+]1ccc(-c2c3nc(c(-c4cc[n+](C)cc4)c4ccc([nH]4)c(-c4cc[n+](C)cc4)c4nc(c(-c5cc[n+](C)cc5)c5ccc2[nH]5)C=C4)C=C3)cc1.Cc1ccc(S(=O)(=O)[O-])cc1.Cc1ccc(S(=O)(=O)[O-])cc1.Cc1ccc(S(=O)(=O)[O-])cc1.Cc1ccc(S(=O)(=O)[O-])cc1 [lauryl methyl pyrifrin]?
**A.** primary irritation index (3 μM): 0.00; evaluation of primary irritation index (3 μM): no irritation; primary irritation index (30 μM): 0.175; erythema observed (30 μM, after 24 hours, abraded area implied): very slight erythema; mice with very slight erythema (30 μM, after 24 hours): 2/6; erythema observed (30 μM, after 72 hours): very slight erythema; evaluation of primary irritation index (30 μM): irritation barely perceptible; primary irritation index (300 μM): 1.4; edema observed (300 μM, after 24 hours): Slight edema; erythema observed (300 μM, after 24 hours, abraded area implied): very slight erythema; mice with very slight erythema (300 μM, after 24 hours): 6/6; evaluation of primary irritation index (300 μM): slight irritation; erythema and edema at the intact area (intact area, all concentrations except 300 μM TMP): no erythema and edema
